{"source": "paper PMC7941644", "about": "“Identification and Development of Therapeutics for COVID-19” (ArXiv, 2021)", "origin": "cited, not measured here", "key": {"SARS-CoV-1": {"target": "SARS-CoV-1", "settings": "cell culture assays"}, "COVID-19 [1]": {"system": "COVID-19", "set-up": "method as in PMID 32275812", "settings": "of the 53 patients evaluated; 200 mg IV day 1, 100 mg/day for 9 days; no control group"}, "COVID-19 [2]": {"system": "COVID-19"}, "COVID-19 [3]": {"system": "COVID-19", "set-up": "method as in PMID 32821939", "settings": "moderate COVID-19"}, "MERS-CoV": {"target": "MERS-CoV", "settings": "cell culture assays"}, "COVID-19 [4]": {"system": "COVID-19", "set-up": "method as in PMID 32445440"}}, "note": "Where two headings read alike, the source gives them in different places.", "data": [{"smiles": "CCC(CC)COC(=O)[C@H](C)N[P@](=O)(OC[C@H]1O[C@@](C#N)(c2ccc3c(N)ncnn23)[C@H](O)[C@@H]1O)Oc1ccccc1", "note": "[remdesivir]", "values": [{"measurement": "IC50, polymerase and replication", "setting": "SARS-CoV-1", "value": "submicromolar"}, {"measurement": "clinical improvement", "setting": "COVID-19 [1]", "value": 68, "unit": "%"}, {"measurement": "patients who died during initial hospitalization", "setting": "COVID-19 [2]; 2,750 patients in remdesivir group, control 303 of 2,708", "value": 301}, {"measurement": "overall rate ratio for death", "setting": "COVID-19 [2]; meta-analysis of Solidarity and three other remdesivir studies, p = 0.20", "value": 0.91}, {"measurement": "rate ratio of in-hospital death", "setting": "COVID-19 [2]; vs control, no placebo", "value": 0.95}, {"measurement": "effect of treatment for five days relative to standard of care", "setting": "COVID-19 [3]", "value": "small effect of treatment"}, {"measurement": "IC50, polymerase and replication", "setting": "MERS-CoV", "value": "submicromolar"}, {"measurement": "hazard ratio for death by 14 days", "setting": "COVID-19 [4]; 95% CI 0.36 to 0.83", "value": 0.55}, {"measurement": "hazard ratio for death at day 29", "setting": "COVID-19 [4]; 95% CI 0.52 to 1.03", "value": 0.73}, {"measurement": "rate ratio for recovery", "setting": "COVID-19 [4]; 95% CI 1.12 to 1.49, p < 0.001", "value": 1.29}, {"measurement": "serious adverse events", "setting": "COVID-19 [4]; 131 of 532 patients, placebo 31.6%", "value": 24.6, "unit": "%"}, {"measurement": "rate ratio for recovery", "setting": "COVID-19 [4]; patients with severe disease, 95% CI 1.12 to 1.52", "value": 1.31}, {"measurement": "recovery period", "setting": "COVID-19 [4]; patients with severe disease, versus 18", "value": 11, "unit": "days"}, {"measurement": "Kaplan-Meier estimate of mortality by 14 days", "setting": "COVID-19 [4]; placebo 11.9%", "value": 6.7, "unit": "%"}, {"measurement": "Kaplan-Meier estimate of mortality at day 29", "setting": "COVID-19 [4]; placebo 15.2%", "value": 11.4, "unit": "%"}, {"measurement": "median recovery time", "setting": "COVID-19 [4]; placebo 15 days", "value": 10, "unit": "days"}]}]}
